Data taken from patent publication US9204645B2, “Insecticidal aromatic amides” (BAYER INTELLECTUAL PROPERTY GMBH, priority 2011, dated 2015).
Like-named read-outs stand apart in the source and are kept apart here.

Key:
Type in all cases: in vivo
[1] = tested on: green peach aphid (Myzus persicae); experiment: Myzus spray test (MYZUPE); details: for efficacy compared to similar compounds of the prior art: MYZUPE spray test; for inhibition at 100 g/ha / inhibition at 20 g/ha / inhibition at 500 g/ha: Myzus persicae, 144 h; for inhibition at 100 g/ha / inhibition at 20 g/ha: read-out: % Activity
Procedure: Myzus—Spray Test (MYZUPE)
(§1) • Solvents: 78.0 parts by weight of acetone • 1.5 parts by weight of dimethylformamide • Emulsifier: 0.5 part by weight of alkylaryl polyglycol ether
(§2) To produce a suitable preparation of active compound, 1 part by weight of active compound is mixed with the stated amounts of solvents and emulsifier, and the concentrate is diluted with emulsifier-containing water to the desired concentration.
Discs of Chinese cabbage leaves (Brassica pekinensis) infested by all stages of the green peach aphid (Myzus persicae) are sprayed with an active compound preparation of the desired concentration.
After the desired period of time, the effect in % is determined. 100% here means that all of the aphids have been killed; 0% means that no aphids have been killed.

[2] = tested on: greenhouse red spider mite (Tetranychus urticae); experiment: Tetranychus urticae spray test, OP-resistant (TETRUR), bean leaf discs; details: for efficacy compared to similar compounds of the prior art: TETRUR spray test, leaf discs; for inhibition at 100 g/ha / inhibition at 500 g/ha: Tetranychus urticae, foliar, 144 h, read-out: % Activity
Procedure: Tetranychus urticae—Spray Test; OP-resistant (TETRUR)
as §1, §2
Discs of bean leaves (Phaseolus vulgaris) which are infested by all stages of the greenhouse red spider mite (Tetranychus urticae) are sprayed with an active compound preparation of the desired concentration.
After the desired period of time, the effect in % is determined. 100% means that all of the spider mites have been killed; 0% means that none of the spider mites have been killed.

[3] = tested on: larvae of the mustard beetle (Phaedon cochleariae); experiment: Phaedon cochleariae spray test (PHAECO); details: for inhibition at 20 g/ha: read-out: % Activity
Procedure: Phaedon Cochleariae—Spray Test (PHAECO)
as §1, §2
After the desired period of time, the effect in % is determined 100% means that all of the beetle larvae have been killed; 0% means that none of the beetle larvae have been killed.

[4] = Phaedon cochleariae, 168 h, PHAECO, 7 dat

CCN(C(=O)c1c(C(F)(F)F)c(C(F)(F)C(F)(F)F)nn1C)c1ccc(F)c(CNC(=O)C2CC2)c1 [Example 2]
efficacy compared to similar compounds of the prior art [1]: superior efficacy | inhibition at 100 g/ha [1]: 90% | efficacy compared to similar compounds of the prior art [2]: superior efficacy | inhibition at 100 g/ha [2]: 100%

CCC(=O)NCc1cc(NC(=O)c2c(C(F)(F)F)c(C(F)(F)F)nn2C)ccc1F [Example 201]
efficacy compared to similar compounds of the prior art [1]: superior efficacy | inhibition at 20 g/ha ([1]; MYZUPE, 6 dat): 100% | efficacy compared to similar compounds of the prior art [2]: superior efficacy | inhibition at 100 g/ha ([2]; TETRUR, 100 g/ha, 6 dat): 100%

CC(=O)NCc1cc(NC(=O)c2c(Br)c(C(F)(F)C(F)(F)F)nn2C)ccc1F [Example 926]
efficacy compared to similar compounds of the prior art [2]: superior efficacy | inhibition at 100 g/ha ([2]; TETRUR, 100 g/ha, 6 dat): 90%

CCN(C(=O)c1c(C(F)(F)F)c(C(F)(F)C(F)(F)F)nn1C)c1ccc(F)c(CNC(C)=O)c1 [Example 9]
efficacy compared to similar compounds of the prior art [1]: superior efficacy | inhibition at 20 g/ha ([1]; MYZUPE, 6 dat): 100% | efficacy compared to similar compounds of the prior art [2]: superior efficacy | inhibition at 500 g/ha ([2]; TETRUR, 6 dat): 100%

CN(C(=O)c1c(C(F)(F)F)c(C(F)(F)C(F)(F)F)nn1C)c1cccc(CNC(=O)C2CC2)c1 [Example 10]
inhibition at 100 g/ha ([1]; MYZUPE, 100 g/ha, 6 dat): 100% | inhibition at 500 g/ha ([2]; TETRUR, 6 dat): 100%

CC(C)NC(=O)c1cc(NC(=O)c2c(Br)c(C(F)(F)C(F)(F)F)nn2C)ccc1Cl [Example Ik-27, reference compound]
inhibition at 100 g/ha ([2]; TETRUR, 100 g/ha, 6 dat): 0%

CCCNC(=O)c1cc(NC(=O)c2c(C(F)(F)F)c(C(F)(F)C(F)(F)F)nn2C)ccc1Cl [Example Ik-30, reference compound]
inhibition at 20 g/ha ([1]; MYZUPE, 6 dat): 0%

Cn1nc(C(F)(F)C(F)(F)F)c(Br)c1C(=O)Nc1ccc(F)c(CNC(=O)C2CC2)c1 [Example 933]
efficacy compared to similar compounds of the prior art ([3]; PHAECO spray test): superior efficacy | inhibition at 20 g/ha [3, 4]: 100% | efficacy compared to similar compounds of the prior art [2]: superior efficacy | inhibition at 100 g/ha ([2]; TETRUR, 100 g/ha, 6 dat): 90%

CC(=O)NCc1c(F)ccc(NC(=O)c2c(C(F)(F)F)c(C(F)(F)C(F)(F)F)nn2C)c1F [Example 11]
inhibition at 100 g/ha ([3]; Phaedon cochleariae, 168 h, PHAECO, 100 g/ha, 7 dat): 100% | inhibition at 500 g/ha ([2]; TETRUR, 6 dat): 90%

CC(=O)NCc1cc(NC(=O)c2c(Cl)c(C(F)(F)F)nn2C)ccc1F [Example 937]
efficacy compared to similar compounds of the prior art [1]: superior efficacy | inhibition at 100 g/ha ([1]; MYZUPE, 100 g/ha, 6 dat): 90%

CC(=O)NCc1cc(N(C)C(=O)c2c(C(F)(F)F)c(C(F)(F)C(F)(F)F)nn2C)ccc1F [Example 8]
inhibition at 500 g/ha ([1]; MYZUPE, 6 dat): 100% | inhibition at 500 g/ha ([2]; TETRUR, 6 dat): 100%

CN(C(=O)c1c(C(F)(F)F)c(C(F)(F)C(F)(F)F)nn1C)c1ccc(Cl)c(C(=O)NC2CC2)c1 [Example Ik-132, reference compound]
inhibition at 100 g/ha ([1]; MYZUPE, 100 g/ha, 6 dat): 0%

Cn1nc(C(F)(F)C(F)(F)F)c(C(F)(F)F)c1C(=O)Nc1ccc(F)c(C(=O)NC2CC2)c1 [Example Ik-155, reference compound]
inhibition at 100 g/ha ([1]; MYZUPE, 100 g/ha, 6 dat): 0% | inhibition at 100 g/ha ([2]; TETRUR, 100 g/ha, 6 dat): 0%

Cn1nc(C(F)(F)F)c(C(F)(F)F)c1C(=O)Nc1ccc(Cl)c(C(=O)NC2CC2)c1 [Example Ik-195, reference compound]
inhibition at 20 g/ha ([1]; MYZUPE, 6 dat): 0%

Cn1nc(C(F)(F)F)c(C(F)(F)F)c1C(=O)Nc1ccc(F)c(CNC(=O)C2CC2)c1 [Example 298]
efficacy compared to similar compounds of the prior art [1]: superior efficacy | inhibition at 20 g/ha ([1]; MYZUPE, 6 dat): 90%

Cn1nc(C(F)(F)C(F)(F)F)c(Br)c1C(=O)Nc1ccc(Cl)c(C(=O)NC2CC2)c1 [Example Ik-26, reference compound]
inhibition at 20 g/ha [3, 4]: 0% | inhibition at 100 g/ha ([2]; TETRUR, 100 g/ha, 6 dat): 0%

Cn1nc(C(F)(F)F)c(Cl)c1C(=O)Nc1ccc(Cl)c(C(=O)NC2CC2)c1 [Example Ik-18, reference compound]
inhibition at 100 g/ha ([1]; MYZUPE, 100 g/ha, 6 dat): 0%

Cn1nc(C(F)(F)C(F)(F)F)c(C(F)(F)F)c1C(=O)Nc1cccc(C(=O)NC2CC2)c1 [Example Ik-13, reference compound]
inhibition at 500 g/ha ([1]; MYZUPE, 6 dat): 0% | inhibition at 500 g/ha ([2]; TETRUR, 6 dat): 0%
